# Reference: patent US20110224208A1, “NOVEL INHIBITORS OF FLAVIVIRUS REPLICATION” (KATHOLIEKE UNIVERSITEIT LEUVEN, K.U. LEUVEN R&D, priority 2008, published 2011)
# Test system: HCV replicon I389luc-ubi-neo/NS3-3'/5.1
# Test: Anti-HCV replicon assay (luciferase activity) in Huh-5-2 cells
# Type: cell-based, Hepatitis C virus
# Settings: Hepatitis C virus, Huh-5-2, 72 h, concentration required to inhibit luciferase activity in the replicon system by 50%
# Description: Cells were seeded at a density of 7000 cells per well in 96 well View Plate™ (Packard) in medium containing the same components as described above, except for G418. Cells were allowed to adhere and proliferate for 24 hr. At that time, culture medium was removed and serial dilutions of the test compounds were added in culture medium lacking G418. Interferon alfa 2a (500 IU) was included as a positive control. Plates were further incubated at 37° C. and 5% CO2 for 72 hours. Replication of the HCV replicon in Huh-5 cells results in luciferase activity in the cells. Luciferase activity is measured by adding 50 μl of 1×Glo-lysis buffer (Promega) for 15 minutes followed by 50 ul of the Steady-Glo Luciferase assay reagent (Promega). Luciferase activity is measured with a luminometer and the signal in each individual well is expressed as a percentage of the untreated cultures. […] Instead the density of the culture is measured by means of the MTS method (Promega).
row,Structure (SMILES),IC50 [µg/mL]
1,"COCCN1C(=O)c2ccccc2C(C(=O)Nc2cccc(C)c2)C1c1cccs1 (stereo not drawn) [C85, 2-(2-methoxyethyl)-1-oxo-3-(thiophen-2-yl)-N-m-tolyl-1,2,3,4-tetrahydroisoquinoline-4-carboxamide]",0.18
2,"COCCN1C(=O)c2ccccc2C(C(=O)O)C1c1cccs1 (stereo not drawn) [C36, 2-(2-methoxyethyl)-1-oxo-3-(thiophen-2-yl)-1,2,3,4-tetrahydroisoquinoline-4-carboxylic acid]",47.1
3,"COCCN1C(=O)c2c(F)ccc(F)c2C(C(=O)Nc2cccc(OC)c2)C1c1cccs1 (stereo not drawn) [C91, 5,8-difluoro-2-(2-methoxyethyl)-N-(3-methoxyphenyl)-1-oxo-3-(thiophen-2-yl)-1,2,3,4-tetrahydroisoquinoline-4-carboxamide]",0.32
4,"COCCN1C(=O)c2ccccc2C(COCc2ccccc2)C1c1cccs1 (stereo not drawn) [C76, 4-(benzyloxymethyl)-2-(2-methoxyethyl)-3-(thiophen-2-yl)-3,4-dihydroisoquinolin-1(2H)-one]",22
5,"COCCN1C(=O)c2ccc(F)cc2C(C(=O)Nc2cccc(OC)c2)C1c1cccs1 (stereo not drawn) [C77, 6-fluoro-2-(2-methoxyethyl)-N-(3-methoxyphenyl)-1-oxo-3-(thiophen-2-yl)-1,2,3,4-tetrahydroisoquinoline-4-carboxamide]",11.2
6,"COCCN1C(=O)c2ccccc2C(C(=O)Nc2cccc(OC(F)(F)F)c2)C1c1cccs1 (stereo not drawn) [C112, 2-(2-methoxyethyl)-1-oxo-3-(thiophen-2-yl)-N-(3-(trifluoromethoxy)phenyl)-1,2,3,4-tetrahydroisoquinoline-4-carboxamide]",0.31
7,"COCCN1C(=O)c2ccccc2C(C(=O)Nc2ccc(-n3nc(C)cc3C)cc2)C1c1cccs1 (stereo not drawn) [C201, N-(4-(3,5-dimethyl-1H-pyrazol-1-yl)phenyl)-2-(2-methoxyethyl)-1-oxo-3-(thiophen-2-yl)-1,2,3,4-tetrahydroisoquinoline-4-carboxamide]",0.078
8,"COCCN1C(=O)c2ccccc2C(C(=O)Nc2ccc(NC(C)=O)cc2)C1c1cccs1 (stereo not drawn) [C129, N-(4-acetamidophenyl)-2-(2-methoxyethyl)-1-oxo-3-(thiophen-2-yl)-1,2,3,4-tetrahydroisoquinoline-4-carboxamide]",6.66
9,"COCCN1C(=O)c2ccccc2C(C(=O)Nc2cccc(OC)c2)C1c1ccccc1 (stereo not drawn) [C28, 2-(2-Methoxyethyl)-N-(3-methoxyphenyl)-1-oxo-3-phenyl-1,2,3,4-tetrahydroisoquinoline-4-carboxamide]",38.8
10,"COCCN1C(=O)c2ccccc2C(C(=O)Nc2cccc(OC)c2)C1c1cc(C)no1 (stereo not drawn) [C104, 2-(2-methoxyethyl)-N-(3-methoxyphenyl)-3-(3-methylisoxazol-5-yl)-1-oxo-1,2,3,4-tetrahydroisoquinoline-4-carboxamide]",10.1
11,"COc1cccc(NC(=O)C2c3ccccc3C(=O)N(Cc3ccco3)C2c2cccs2)c1 (stereo not drawn) [C4, 2-(Furan-2-ylmethyl)-N-(3-methoxyphenyl)-1-oxo-3-(thiophen-2-yl)-1,2,3,4-tetrahydroisoquinoline-4-carboxamide]",41.5
12,"COCCN1C(=O)c2ccccc2C(C(=O)Nc2ccc3scnc3c2)C1c1cccs1 (stereo not drawn) [C164, N-(benzo[d]thiazol-5-yl)-2-(2-methoxyethyl)-1-oxo-3-(thiophen-2-yl)-1,2,3,4-tetrahydroisoquinoline-4-carboxamide]",0.13
13,"COCCN1C(=O)c2ccccc2C(C(=O)Nc2cccc(OC)c2)C1C (stereo not drawn) [C69, 2-(2-methoxyethyl)-N-(3-methoxyphenyl)-3-methyl-1-oxo-1,2,3,4-tetrahydroisoquinoline-4-carboxamide]",8.7
14,"COCCN1C(=O)c2ccccc2C(C(=O)Nc2ccc(Cl)cn2)C1c1cccs1 (stereo not drawn) [C223, N-(5-chloropyridin-2-yl)-2-(2-methoxyethyl)-1-oxo-3-(thiophen-2-yl)-1,2,3,4-tetrahydroisoquinoline-4-carboxamide]",1
15,"COCCN1C(=O)c2cccc(F)c2C(C(=O)Nc2cccc(OC)c2)C1c1cccs1 (stereo not drawn) [C61, 5-Fluoro-2-(2-methoxyethyl)-N-(3-methoxyphenyl)-1-oxo-3-(thiophen-2-yl)-1,2,3,4-tetrahydroisoquinoline-4-carboxamide]",0.22
16,"COCCN1C(=O)c2ccccc2C(C(=O)Nc2ccc(C(C)C)cc2)C1c1cccs1 (stereo not drawn) [C165, N-(4-isopropylphenyl)-2-(2-methoxyethyl)-1-oxo-3-(thiophen-2-yl)-1,2,3,4-tetrahydroisoquinoline-4-carboxamide]",0.4
17,"COCCN1C(=O)c2ccccc2C(C(=O)Nc2ccc3[nH]ncc3c2)C1c1cccs1 (stereo not drawn) [C132, N-(1H-indazol-5-yl)-2-(2-methoxyethyl)-1-oxo-3-(thiophen-2-yl)-1,2,3,4-tetrahydroisoquinoline-4-carboxamide]",1

row,Structure (SMILES),IC50 [µg/mL]
1,"COCCN1C(=O)c2ccccc2C(C(=O)Nc2cccc(OC)c2)C1c1cccn1C (stereo not drawn) [C106, 2-(2-methoxyethyl)-N-(3-methoxyphenyl)-3-(1-methyl-1H-pyrrol-2-yl)-1-oxo-1,2,3,4-tetrahydroisoquinoline-4-carboxamide]",44.4
2,"CCN1CCCC1CN1C(=O)c2ccccc2C(C(=O)Nc2cccc(OC)c2)C1c1cccs1 (stereo not drawn) [C67, 2-((1-ethylpyrrolidin-2-yl)methyl)-N-(3-methoxyphenyl)-1-oxo-3-(thiophen-2-yl)-1,2,3,4-tetrahydroisoquinoline-4-carboxamide]",10.4
3,"COc1cccc(NC(=O)C2c3ccccc3C(=O)N(CCSC)C2c2cccs2)c1 (stereo not drawn) [C63, N-(3-methoxyphenyl)-2-(2-(methylthio)ethyl)-1-oxo-3-(thiophen-2-yl)-1,2,3,4-tetrahydroisoquinoline-4-carboxamide]",3.21
4,"COCCN1C(=O)c2cc(C(F)(F)F)ccc2C(C(=O)Nc2cccc(OC)c2)C1c1cccs1 (stereo not drawn) [C92, 2-(2-methoxyethyl)-N-(3-methoxyphenyl)-1-oxo-3-(thiophen-2-yl)-7-(trifluoromethyl)-1,2,3,4-tetrahydroisoquinoline-4-carboxamide]",7.04
5,"COCCN1C(=O)c2ccccc2C(C(=O)Nc2ccc(-n3cccc3)c(C#N)c2)C1c1cccs1 (stereo not drawn) [C222, N-(3-cyano-4-(1H-pyrrol-1-yl)phenyl)-2-(2-methoxyethyl)-1-oxo-3-(thiophen-2-yl)-1,2,3,4-tetrahydroisoquinoline-4-carboxamide]",0.21
6,"COCCN1C(=O)c2ccccc2C(C(=O)Nc2ccccc2-c2ccccc2)C1c1cccs1 (stereo not drawn) [C84, N-(biphenyl-2-yl)-2-(2-methoxyethyl)-1-oxo-3-(thiophen-2-yl)-1,2,3,4-tetrahydroisoquinoline-4-carboxamide]",12
7,"COCCN1C(=O)c2ccccc2C(C(=O)Nc2cccc(-n3cccc3)c2)C1c1cccs1 (stereo not drawn) [C115, N-(3-(1H-pyrrol-1-yl)phenyl)-2-(2-methoxyethyl)-1-oxo-3-(thiophen-2-yl)-1,2,3,4-tetrahydroisoquinoline-4-carboxamide]",0.29
8,"COCCN1C(=O)c2ccccc2C(C(=O)Nc2ccc(Cl)c(Cl)c2)C1c1cccs1 (stereo not drawn) [C87, N-(3,4-dichlorophenyl)-2-(2-methoxyethyl)-1-oxo-3-(thiophen-2-yl)-1,2,3,4-tetrahydroisoquinoline-4-carboxamide]",0.15
9,"COc1cccc(NC(=O)C2c3ccccc3C(=O)N(CCN(C)C)C2c2cccs2)c1 (stereo not drawn) [C15, 2-(2-(Dimethylamino)ethyl)-N-(3-methoxyphenyl)-1-oxo-3-(thiophen-2-yl)-1,2,3,4-tetrahydroisoquinoline-4-carboxamide]",11.8
10,"COCCN1C(=O)c2ccccc2C(C(=O)Nc2cccc(OC)c2)C1c1cc2ccccc2s1 (stereo not drawn) [C27, 3-(Benzo[b]thiophen-2-yl)-2-(2-methoxyethyl)-N-(3-methoxyphenyl)-1-oxo-1,2,3,4-tetrahydroisoquinoline-4-carboxamide]",17.4
11,"COCCN1C(=O)c2ccccc2C(C(=O)Nc2cc(C3CC3)nn2C)C1c1cccs1 (stereo not drawn) [C197, N-(3-cyclopropyl-1-methyl-1H-pyrazol-5-yl)-2-(2-methoxyethyl)-1-oxo-3-(thiophen-2-yl)-1,2,3,4-tetrahydroisoquinoline-4-carboxamide]",4
12,"COCCN1C(=O)c2ccccc2C(C(=O)Nc2cccc(Cl)c2)C1c1cccs1 (stereo not drawn) [C60, N-(3-chlorophenyl)-2-(2-methoxyethyl)-1-oxo-3-(thiophen-2-yl)-1,2,3,4-tetrahydroisoquinoline-4-carboxamide]",0.98
13,"COCCN1C(=O)c2ccccc2C(C(=O)Nc2ccc3c(c2)S(=O)(=O)C=C3)C1c1cccs1 (stereo not drawn) [C198, N-(1,1-dioxobenzo[b]thiophen-6-yl)-2-(2-methoxyethyl)-1-oxo-3-(thiophen-2-yl)-1,2,3,4-tetrahydroisoquinoline-4-carboxamide]",4
14,"COCCN1C(=O)c2ccccc2C(C(=O)Nc2ccc(N3CCOCC3)cc2)C1c1cccs1 (stereo not drawn) [C121, 2-(2-methoxyethyl)-N-(4-morpholinophenyl)-1-oxo-3-(thiophen-2-yl)-1,2,3,4-tetrahydroisoquinoline-4-carboxamide]",1.06
15,"COCCN1C(=O)c2ccccc2C(C(=O)Nc2ccncn2)C1c1cccs1 (stereo not drawn) [C162, 2-(2-methoxyethyl)-1-oxo-N-(pyrimidin-4-yl)-3-(thiophen-2-yl)-1,2,3,4-tetrahydroisoquinoline-4-carboxamide]",3.56
16,"COCCN1C(=O)c2ccc(Cl)cc2C(C(=O)Nc2cccc(OC)c2)C1c1cccs1 (stereo not drawn) [C55, 6-chloro-2-(2-methoxyethyl)-N-(3-methoxyphenyl)-1-oxo-3-(thiophen-2-yl)-1,2,3,4-tetrahydroisoquinoline-4-carboxamide]",43
